Data from patent US8263606B2 (Xenon Pharmaceuticals Inc., priority 2008, dated 2012).
pIC50: −log10 of the molar value. Structures can show the parent of a compound that is named as a salt.

How the values were obtained:
CYP3A4 = CYP3A4 (Homo sapiens, UniProt P08684); assay: Cytochrome P450 (CYP450) Inhibition Assay, CYP3A4 (Vivid fluorescence, BOMCC substrate); conditions: human, P450 Baculosomes (recombinant CYP3A4), probe BOMCC (Vivid substrate)
sodium channel = assay: Guanidine influx assay (14C-guanidine radiotracer flux, in vitro); type: cell-based, human or rat; conditions: guanidine influx assay using a known cell line that expresses a sodium channel
Description: This example describes an in vitro assay for testing and profiling test agents against human or rat sodium channels stably expressed in cells of either an endogenous or recombinant origin. The assay is also useful for determining the IC50 of a sodium channel blocking compound. The assay is based on the guanidine flux assay described by Reddy, N. L., et al., J. Med. Chem. (1998), 41(17):3298-302.
The guanidine influx assay is a radiotracer flux assay used to determine ion flux activity of sodium channels in a high-throughput microplate-based format. The assay uses ^14C-guanidine hydrochloride in combination with various known sodium channel modulators, to assay the potency of test agents. Potency is determined by an IC50 calculation. Selectivity is determined by comparing potency of the compound for the channel of interest to its potency against other sodium channels (also called ‘selectivity profiling’).
Each of the test agents is assayed against cells that express the channels of interest. Voltage gated sodium channels are either TTX sensitive or insensitive. This property is useful when evaluating the activities of a channel of interest when it resides in a mixed population with other sodium channels. The following Table 1 summarizes cell lines useful in screening for a certain channel activity in the presence or absence of TTX.
It is also possible to employ recombinant cells expressing these sodium channels. Cloning and propagation of recombinant cells are known to those skilled in the art (see, for example, Klugbauer, N, et al., EMBO J. (1995), 14(6):1084-90; and Lossin, C., et al., Neuron (2002), 34, pp. 877-884).
Cells expressing the channel of interest are grown according to the supplier or in the case of a recombinant cell in the presence of selective growth media such as G418 (Gibco/Invitrogen). The cells are disassociated from the culture dishes with an enzymatic solution (Ix) Trypsin/EDTA (Gibco/Invitrogen) and analyzed for density and viability using haemocytometer (Neubauer). Disassociated cells are washed and resuspended in their culture media then plated into Scintiplates (Beckman Coulter Inc.) (approximately 100,000 cells/well) and incubated at 37° C./5% CO2 for 20-24 hours. After an extensive wash with Low sodium HEPES-buffered saline solution (LNHBSS) (150 mM Choline Chloride, […] (Sigma), 1 mM Calcium Chloride, 5 mM Potassium Chloride, 1 mM Magnesium Chloride, 10 mM Glucose) agents diluted with LNHBSS are added to each well. (Varying concentrations of test agent may be used). The activation/radiolabel mixture contains aconitine (Sigma) to increase the percentage of time that the sodium channels are open, and ^14C-guanidine hydrochloride (ARC) to measure flux through the voltage-gated sodium channels.
After loading the cells with test agent and activation/radiolabel mixture, the Scintiplates are incubated at ambient temperature. Following the incubation, the Scintplates are extensively washed with LNHBSS supplemented with guanidine (Sigma). The Scintiplates are dried and then counted using a Wallac MicroBeta TriLux (Perkin-Elmer Life Sciences). The ability of the test agent to block sodium channel activity is determined by comparing the amount of ^14C-guanidine present inside the cells expressing the different sodium channels.
The IC50 value of a test agent for a specific sodium channel may be determined using the above general method. […] Typically the mid-point concentration of test agent is set at 1 μM, and sequential concentrations of half dilutions greater or smaller are applied (e.g. 0.5 μM; 5 μM and 0.25 μM; 10 μM and 0.125 μM; 20 μM etc.). The IC50 curve is calculated using the 4 Parameter Logistic Model or Sigmoidal Dose-Response Model formula (fit=(A+((B−A)/(1+((C/x)^D)))).
The fold selectivity, factor of selectivity or multiple of selectivity, is calculated by dividing the IC50 value of the test sodium channel by the reference sodium channel, for example, Nav1.5. […]

Sequence of CYP3A4 (P08684 whole entry): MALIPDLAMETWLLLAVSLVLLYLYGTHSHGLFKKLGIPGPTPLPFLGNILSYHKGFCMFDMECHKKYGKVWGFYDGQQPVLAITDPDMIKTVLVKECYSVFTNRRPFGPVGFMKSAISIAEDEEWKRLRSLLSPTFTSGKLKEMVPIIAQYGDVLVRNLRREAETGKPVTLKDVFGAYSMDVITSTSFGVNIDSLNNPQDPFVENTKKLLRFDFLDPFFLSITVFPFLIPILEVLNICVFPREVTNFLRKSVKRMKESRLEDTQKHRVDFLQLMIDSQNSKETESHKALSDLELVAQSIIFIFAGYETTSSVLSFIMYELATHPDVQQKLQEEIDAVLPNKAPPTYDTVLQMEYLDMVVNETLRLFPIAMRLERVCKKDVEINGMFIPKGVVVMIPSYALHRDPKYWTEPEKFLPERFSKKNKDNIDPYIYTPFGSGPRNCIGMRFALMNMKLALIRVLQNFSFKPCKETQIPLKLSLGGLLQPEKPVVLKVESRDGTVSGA

With `O=C1N(Cc2ccc(N[C@@H]3CCNC3)cc2)c2ccccc2C12COc1cc(F)c(F)cc12` (stereo partly drawn) [Example 33.2, 5,6-difluoro-1′-{4-[(3R)-pyrrolidin-3-ylamino]benzyl}spiro[1-benzofuran-3,3′-indol]-2′(1′H)-one hydrochloride] the inhibition at 10 µM (CYP3A4) was > 50% and the pIC50 (sodium channel) was 5.00 to 6.00.

In the case of `O=C1N(Cc2cccc(S(=O)(=O)N3CCOCC3)c2)c2ccccc2C12COc1cc3c(cc12)OCCO3` (stereo not shown) [Example 7.17, 1′-[3-(morpholin-4-ylsulfonyl)benzyl]-2,3-dihydrospiro[furo[2,3-g][1,4]benzodioxine-8,3′-indol]-2′(1′H)-one], the inhibition at 10 µM (CYP3A4) was > 50% and the pIC50 (sodium channel; activity level class) was 5.00 to 6.00.

`CC(C)CCN1C(=O)C2(COc3cc4c(cc32)CCO4)c2ccccc21` (stereo not shown) [Example 4.4, 1′-(3-methylbutyl)-5,6-dihydrospiro[benzo[1,2-b:5,4-b′]difuran-3,3′-indol]-2′(1′H)-one] was tested, and the inhibition at 10 µM (CYP3A4) was > 50% and the pIC50 (sodium channel; activity level class) was 7.00 to 9.00.

With `O=C1N(Cc2ccc(-c3ccccc3F)cc2)c2ccccc2C12COc1cc3c(cc12)CCO3` (stereo not shown) [Example 11.17, 1′-[(2′-fluorobiphenyl-4-yl)methyl]-5,6-dihydrospiro[benzo[1,2-b:5,4-b′]difuran-3,3′-indol]-2′(1′H)-one] the inhibition at 10 µM (CYP3A4) was < 50% and the pIC50 (sodium channel) was 6.00 to 7.00.

In the case of `O=C1N(Cc2cncc(F)c2)c2ccccc2C12COc1cc3c(cc12)OCCO3` (stereo not shown) [Example 8.18, 1′-[(5-fluoropyridin-3-yl)methyl]-2,3-dihydrospiro[furo[2,3-g][1,4]benzodioxine-8,3′-indol]-2′(1′H)-one], the inhibition at 10 µM (CYP3A4) was > 50% and the pIC50 (sodium channel; activity level class) was 7.00 to 9.00.

In the case of `O=C(NC1CC1)c1coc(CN2C(=O)C3(COc4cc5c(cc43)OCO5)c3ccccc32)n1` (stereo not shown) [Example 13.5, N-cyclopropyl-2-[(2′-oxospiro[furo[2,3-f][1,3]benzodioxole-7,3′-indol]-1′(2′H)-yl)methyl]-1,3-oxazole-4-carboxamide], the inhibition at 10 µM (CYP3A4) was > 50% and the pIC50 (sodium channel) was 7.00 to 9.00.

`O=C1N(Cc2cc(-c3cccnc3)no2)c2ccccc2C12COc1cc3c(cc12)OCCO3` (stereo not shown) [Example 7.14] was tested, and the inhibition at 10 µM (CYP3A4) was > 50% and the pIC50 (sodium channel; activity level class) was 7.00 to 9.00.

In the case of `O=C1N(Cc2cccc[n+]2[O-])c2ccccc2C12COc1cc3c(cc12)OCCO3` (stereo not shown) [Example 11.95, 1′-[(1-oxidopyridin-2-yl)methyl]-2,3-dihydrospiro[furo[2,3-g][1,4]benzodioxine-8,3′-indol]-2′(1′H)-one], the inhibition at 10 µM (CYP3A4) was < 50% and the pIC50 (sodium channel) was 6.00 to 7.00.

In the case of `CN1CCOC(CN2C(=O)C3(COc4cc5c(cc43)CCO5)c3ccccc32)C1` (stereo not shown) [Example 11.41, 1′-[(4-methylmorpholin-2-yl)methyl]-5,6-dihydrospiro[benzo[1,2-b:5,4-b′]difuran-3,3′-indol]-2′(1′H)-one], the inhibition at 10 µM (CYP3A4) was > 50% and the pIC50 (sodium channel) was 6.00 to 7.00.

`Nc1cc(-c2ccc(CN3C(=O)C4(COc5cc6c(cc54)OCCO6)c4ccccc43)cc2)[nH]n1` (stereo not shown) [Example 29.2, 1′-[4-(3-amino-1H-pyrazol-5-yl)benzyl]-2,3-dihydrospiro[furo[2,3-g][1,4]benzodioxine-8,3′-indol]-2′(1′H)-one hydrochloride] was tested, and the inhibition at 10 µM (CYP3A4) was > 50% and the pIC50 (sodium channel) was 6.00 to 7.00.

With `O=C1N(Cc2ccccn2)c2ccccc2C12COc1cc3c(cc12)OCCC3` (stereo not shown) [Example 5.28, 1′-(pyridin-2-ylmethyl)-7,8-dihydro-6H-spiro-[furo[2,3-g]chromene-3,3′-indol]-2′(1′H)-one] the inhibition at 10 µM (CYP3A4) was > 50% and the pIC50 (sodium channel; activity level class) was 7.00 to 9.00.

With `Cn1c(CN2C(=O)C3(COc4cc5c(cc43)CCO5)c3ccccc32)cnc1Cl` (stereo not shown) [Example 4.2, 1′-[(2-chloro-1-methyl-1H-imidazol-5-yl)methyl]-5,6-dihydrospiro[benzo[1,2-b:5,4-b′]difuran-3,3′-indol]-2′(1′H)-one] the inhibition at 10 µM (CYP3A4) was > 50% and the pIC50 (sodium channel; activity level class) was 7.00 to 9.00.

In the case of `O=C1N(Cc2ccc(F)cc2)c2ccccc2C12COc1cc3c(cc12)OCCO3` (stereo not shown) [Example 7.21, 1′-(4-fluorobenzyl)-2,3-dihydrospiro[furo[2,3-g][1,4]benzodioxine-8,3′-indol]-2′(1′H)-one], the inhibition at 10 µM (CYP3A4) was > 50% and the pIC50 (sodium channel; activity level class) was 7.00 to 9.00.

With `CN(C)C(=O)c1ccc(CN2C(=O)C3(COc4cc5c(cc43)CCO5)c3ccccc32)o1` (stereo not shown) [Example 13.1, N,N-dimethyl-5-[(2′-oxo-5,6-dihydrospiro[benzo[1,2-b:5,4-b′]difuran-3,3′-indol]-1′(2′H)-yl)methyl]furan-2-carboxamide] the inhibition at 10 µM (CYP3A4) was > 50% and the pIC50 (sodium channel) was 7.00 to 9.00.

With `COc1cc2c(c(OC)c1)C1(COc3cc4c(cc31)OCCO4)C(=O)N2` (stereo not shown) [Example 3.50, 4′,6′-dimethoxy-2,3-dihydrospiro[furo[2,3-g][1,4]benzodioxine-8,3′-indol]-2′(1′H)-one] the inhibition at 10 µM (CYP3A4) was < 50% and the pIC50 (sodium channel; activity level class) was 5.00 to 6.00.

With `O=C1N(C[C@H]2CCCO2)c2cccc(/C=C/c3ccc(F)cc3)c2C12COc1cc3c(cc12)CCO3` (stereo partly drawn) [Example 16.1, 4′-[(E)-2-(4-fluorophenyl)ethenyl]-1′-[(2R)-tetrahydrofuran-2-ylmethyl]-5,6-dihydrospiro[benzo[1,2-b:5,4-b′]difuran-3,3′-indol]-2′(1′H)-one] the inhibition at 10 µM (CYP3A4) was > 50% and the pIC50 (sodium channel) was 6.00 to 7.00.

For `CCn1cncc1CN1C(=O)C2(COc3cc4c(cc32)CCO4)c2ccccc21` (stereo not shown) [Example 4.21, 1′-[(1-ethyl-1H-imidazol-5-yl)methyl]-5,6-dihydrospiro[benzo[1,2-b:5,4-b′]difuran-3,3′-indol]-2′(1′H)-one], the inhibition at 10 µM (CYP3A4) was > 50% and the pIC50 (sodium channel; activity level class) was 6.00 to 7.00.

For `COc1cc2c(cc1F)C1(CO2)C(=O)N(CC2CCOCC2)c2ccccc21` (stereo not shown) [Example 9.29, 5-fluoro-6-methoxy-1-(tetrahydro-2H-pyran-4-ylmethyl)spiro[1-benzofuran-3,3′-indol]-2′(1′H)-one], the inhibition at 10 µM (CYP3A4) was < 50% and the pIC50 (sodium channel; activity level class) was 5.00 to 6.00.

For `O=C1N(Cc2ncccc2Cl)c2ccccc2C12COc1cc3c(cc12)OCCO3` (stereo not shown) [Example 4.112, 1-[(3-chloropyridin-2-yl)methyl]-2,3-dihydrospiro[furo[2,3-g][1,4]benzodioxine-8,3′-indol]-2′(1′H)-one], the inhibition at 10 µM (CYP3A4) was > 50% and the pIC50 (sodium channel; activity level class) was 7.00 to 9.00.

With `COc1cc2c(cc1C)C1(CO2)C(=O)N(Cc2ccccn2)c2ccccc21` (stereo not shown) [Example 4.62, 6-methoxy-5-methyl-1′-(pyridin-2-ylmethyl)spiro[1-benzofuran-3,3′-indol]-2′(1′H)-one] the inhibition at 10 µM (CYP3A4) was > 50% and the pIC50 (sodium channel; activity level class) was 5.00 to 6.00.

For `O=C1N(C[C@@H]2CCCO2)c2ccccc2[C@@]12COc1cc3c(cc12)CCO3` [Example 11.68, (3R)-1-[(2S)-tetrahydrofuran-2-ylmethyl]-5,6-dihydrospiro[benzo[1,2-b:5,4-b′]difuran-3,3′-indol]-2′(1′H)-one], the inhibition at 10 µM (CYP3A4) was > 50% and the pIC50 (sodium channel) was 7.00 to 9.00.

In the case of `O=C1N(Cc2ccc(C(F)(F)F)nc2)c2ccccc2C12COc1cc3c(cc12)OCCO3` (stereo not shown) [Example 4.98, 1-{[6-(trifluoromethyl)pyridin-3-yl]methyl}-2,3-dihydrospiro[furo[2,3-g][1,4]benzodioxine-8,3′-indol]-2′(1′H)-one], the inhibition at 10 µM (CYP3A4) was > 50% and the pIC50 (sodium channel; activity level class) was 7.00 to 9.00.

With `CN(C)C(=O)c1coc(CN2C(=O)C3(COc4cc5c(cc43)CCO5)c3ccccc32)n1` (stereo not shown) [Example 13.4, N,N-dimethyl-2-[(2′-oxo-5,6-dihydrospiro[benzo[1,2-b:5,4-b′]difuran-3,3′-indol]-1′(2′H)-yl)methyl]-1,3-oxazole-4-carboxamide] the inhibition at 10 µM (CYP3A4) was < 50% and the pIC50 (sodium channel) was 6.00 to 7.00.
